# Reference: patent publication US6287813A, “Antibiotic-based gene regulation system” (Cistronics Cell Technology GmbH, priority 1999, dated 2001)
# Molecular target: T1, PIT/PPIR system (Streptomyces coelicolor, UniProt Q9ADN3)
# T1 construct: pMF156/pTWIN in CHO cells, PPIR-SEAP or GFP reporter
# T1 sequence (Q9ADN3 1-252): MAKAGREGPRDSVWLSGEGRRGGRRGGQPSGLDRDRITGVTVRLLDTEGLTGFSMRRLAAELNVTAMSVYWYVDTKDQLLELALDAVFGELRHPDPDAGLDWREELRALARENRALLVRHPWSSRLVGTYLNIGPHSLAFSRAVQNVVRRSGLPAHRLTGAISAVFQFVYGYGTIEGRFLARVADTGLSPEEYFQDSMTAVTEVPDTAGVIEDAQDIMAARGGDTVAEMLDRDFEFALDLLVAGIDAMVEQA
# Assay: SEAP reporter assay, stable CHO-PIT1/CHO-PIT2 transiently transfected with pMF172
# Format: cell-based
# Method: Chinese hamster ovary cells (CHO-K1, ATCC: CCL 61), Baby hamster kidney cells (BHK-21, ATCC: CRL-8544), and HeLa cells (ATCC: CRL-7923) as well as stable cell lines CHO-PIT1, CHO-PIT2, CHO-TWIN195, CHO-TWIN1108 and CHO-PIT1-SEAP were cultured as described before (Fussenegger et al., 1998, Nat. Biotechnol. 16,468-472) in the presence of appropriate antibiotics: G418 400 μg/ml; zeocin 100 μg/ml. Optimized CaPO4 protocols were used for high efficiency transient transfection of all cell lines (id). Transient transfected cells were routinely analyzed after 48 h for GFP or SEAP expression using fluorescence microscopy and p-nitrophenolphosphate-based light absorbance timecourse, respectively, as described before (Fussenegger et al., 1998, Nat. Biotechnol. 16, 468-472; Berger et al., 1988, Gene 66, 1-10 b). For construction of stable CHO-PIT and CHO-TWIN cell lines, CHO-K1 was cotransfected either with pMF156 or pTWIN1 and pSV2neo carrying the G418 resistance gene. CHO-PIT1-SEAP was constructed by cotransfection of pMF172 and pZeoSV2 (Invitrogen). For assessment of dose-response characteristics of PPIR -regulated gene expression, CHO-PIT1-SEAP were cultured at cell densities of 150,000/ml for 48 at various PI concentrations. The mixed populations were cloned using FACS-mediated single-cell-sorting (FACStar^Plus; Beckton Dickinson). Gel retardation assay were performed as described (Salah-Bey et al., 1995, supra) using Pip purified from an overproducing strain of E. coli. Pip (0.02 pmol) was titrated with a range of antibiotic concentrations in a reaction volume of 20 μl. Protein solutions were pre-incubated at room temperature for 15 min. in the absence or presence of PI or its derivative quinupristin in a buffer containing 10 mM Tris (pH 7.8), 10 mM MgCl2, 300 mM NaCl, 2 mM DTT and 10% glycerol. An EcoRI-HindII PPTR fragment (0.02 pmol) containing three Pip binding sites (radiolabelled using α-^32 P)dATP was added and incubated for 15 min. To minimize nonspecific protein binding and increase protein stability, 2 μg of poly dIdC and 20 μg BSA were included in the incubation mix. Protein-DNA complexes were separated on 5% polyacrylamide,TBE gels and visualized by autoradiography.
# Five different sources of pristinamycin were used: The two therapeutic forms Pyostacin™ and Synercid™, pristinamycin discs, and the single compounds pristinamycin I (PI) and pristinamycin II (PII). Pyostacin™ pills (500 mg) were ground in a mortar and solubilized in DMSO or water at a stock concentration of 50 mg/ml. Synercid™ (RP 59500; Lot Nr. CB06253) was provided by Aventis in injection-ready vials containing 500 mg lyophilized antibiotic which was reconstituted in 5 ml of 5% glucose solution and frozen at -20° C. Individual pristinamycin compounds PI and PII (identical to virginiamycin M1 (VM1); Sigma ref. V2753) were solubilized in DMSO at a concentration of 50 mg/ml and kept at -20° C. Antibiotic discs containing 15 μg pristinamycin or virginiamycin (bioMerieux, ref. 54552; bioMerieux, ref. 54612) were soaked in 1 ml cell culture medium at 4i C for up to 24 h. Virginiamycin consists of virginiamnycin S1 (VS1), the PI analogue, and virginiamycin M1, which is identical in structure to PII (Barri re et al., 1994, supra). 2 μg/ml of streptogramin B was routinely used for regulation studies in cell culture. The concentration of individual streptogramin components was calculated based on their fixed 70:30 ratio (w/w; PII/VM1 /dalfopristin: PI/VS1 /quinupristin). For control experiments TET and doxycycline (DOX) were used either as discs (30 μg/disc, bioM.quadrature.rieux ref. 54882 (TET) and ref. 54172 (DOX)) or as powder (Sigma refs. T3383 and D9891).
# Table 4: Pristinamycin I- (PI) dependent SEAP production of PIT- (PI-dependent transactivator) expressing stable cell lines CHO-PIT1 and CHO-PIT2 transiently transfected with the SEAP-encoding, PI-responsive reporter plasmid pMF172.
# Table 5: Regulation potential of different streptogramins. […]
substance,measurement,setting,value
pristinamycin I [PI],Induction factor (ratio of SEAP activity without PI to SEAP activity with PI),CHO-PIT1,13
same,SEAP Production (%),"CHO-PIT1 + pMF172, 48 h, 2 μg/ml of group B component, no streptogramin = 100",8.06 ± 0.05%
same,SEAP Production (%),"CHO-PIT1 + pMF172, +PI 2 μg/ml, -PI = 100",7.50 ± 2.32%
same,Induction factor (ratio of SEAP activity without PI to SEAP activity with PI),CHO-PIT2,8
same,SEAP Production (%),"CHO-PIT2 + pMF172, +PI 2 μg/ml, -PI = 100",12.7 ± 3.57%
same,Reversibility of PI-responsive SEAP regulation,"CHO-PIT derivatives, repeated cycles of addition and withdrawal",fully reversible
